Laboratory results published in patent US20160038505A1, “METHODS AND COMPOSITIONS FOR TREATING IMPULSE CONTROL DISORDER, ANXIETY-RELATED DISORDERS, VIOLENCE AND/OR ANGER, OR REGULATING FOOD INTAKE” (priority 2014, published 2016).
“Also recorded” adds a separate entry of the source.

Experiments:
Sprague-Dawley rat = assay: Food maintained responding test, regulation of food intake in rats; format: in vivo
[1] = Serum pharmacokinetics in opioid-dependent patients (Phase IB); format: in vivo, human; set-up: unit not given here
Protocol: Three cohorts of nine (9) subjects (6 administered noribogaine and 3 administered placebo in each cohort) were evaluated for tolerability, pharmacokinetics, and efficacy. Cohort 1 received a single dose of 60 mg noribogaine or placebo. Cohort 2 received a single dose of 120 mg noribogaine or placebo. Cohort 3 received a single dose of 180 mg noribogaine or placebo.
FIG. 4 indicates the serum noribogaine concentration over time for each cohort.

[2] = Pharmacokinetics of noribogaine in healthy male volunteers (plasma, urine, LCMSMS)
[3] = 30 mg single oral dose, plasma, mean (SD), n = 6

Question: Which results are given for CC[C@H]1CC2C[C@H]3c4[nH]c5ccc(O)cc5c4CCN(C2)C13 [noribogaine]?
Answer: decrease in food intake (Sprague-Dawley rat; 25 mg/kg PO, P<0.05): 10%; decrease in food intake (Sprague-Dawley rat; 50 mg/kg PO, P<0.001): 25%; effect on food consumption compared to vehicle (Sprague-Dawley rat; noribogaine 12.5 mg/kg PO 2 hours prior to test): no significant effect; also recorded: no effect on food consumption; effect on food consumption compared to vehicle (Sprague-Dawley rat; noribogaine 25 mg/kg PO 2 hours prior to test, P<0.05): significantly decreased food consumption; effect on food consumption compared to vehicle (Sprague-Dawley rat; noribogaine 50 mg/kg PO 2 hours prior to test, P<0.001): significantly decreased food consumption; Serum noribogaine concentration ([1]; 60 mg, time 0): 0; Serum noribogaine concentration ([1]; 60 mg, time 0.5): 3.75; Serum noribogaine concentration ([1]; 60 mg, time 1): 17.86; Serum noribogaine concentration ([1]; 60 mg, time 1.5): 42.54; Serum noribogaine concentration ([1]; 60 mg, time 2): 53.01; Serum noribogaine concentration ([1]; 60 mg, time 2.5): 63.71; Serum noribogaine concentration ([1]; 60 mg, time 3): 72.95; Serum noribogaine concentration ([1]; 60 mg, time 3.5): 71.43; Serum noribogaine concentration ([1]; 60 mg, time 4): 72.89; Serum noribogaine concentration ([1]; 60 mg, time 5): 65.74; Serum noribogaine concentration ([1]; 60 mg, time 6): 64.47; Serum noribogaine concentration ([1]; 60 mg, time 7): 58.26; Serum noribogaine concentration ([1]; 60 mg, time 8): 59.01; Serum noribogaine concentration ([1]; 60 mg, time 12): 46.10; Serum noribogaine concentration ([1]; 60 mg, time 16): 37.99; Serum noribogaine concentration ([1]; 60 mg, time 24): 27.76; Serum noribogaine concentration ([1]; 60 mg, time 36): 20.32; Serum noribogaine concentration ([1]; 60 mg, time 48): 14.56; Serum noribogaine concentration ([1]; 60 mg, time 60): 9.32; Serum noribogaine concentration ([1]; 60 mg, time 72): 6.55; Serum noribogaine concentration ([1]; 60 mg, time 96): 3.41; Serum noribogaine concentration ([1]; 60 mg, time 120): 1.64; Serum noribogaine concentration ([1]; 60 mg, time 144): 0.89; Serum noribogaine concentration ([1]; 120 mg, time 0): 0; Serum noribogaine concentration ([1]; 120 mg, time 0.5): 19.66; Serum noribogaine concentration ([1]; 120 mg, time 1): 76.04; Serum noribogaine concentration ([1]; 120 mg, time 1.5): 98.80; Serum noribogaine concentration ([1]; 120 mg, time 2): 122.67; Serum noribogaine concentration ([1]; 120 mg, time 2.5): 135.05; Serum noribogaine concentration ([1]; 120 mg, time 3): 130.55; Serum noribogaine concentration ([1]; 120 mg, time 3.5): 128.20; Serum noribogaine concentration ([1]; 120 mg, time 4): 143.90; Serum noribogaine concentration ([1]; 120 mg, time 5): 128.76; Serum noribogaine concentration ([1]; 120 mg, time 6): 118.16; Serum noribogaine concentration ([1]; 120 mg, time 7): 110.76; Serum noribogaine concentration ([1]; 120 mg, time 8): 102.12; Serum noribogaine concentration ([1]; 120 mg, time 12): 77.88; Serum noribogaine concentration ([1]; 120 mg, time 16): 62.24; Serum noribogaine concentration ([1]; 120 mg, time 24): 44.19; Serum noribogaine concentration ([1]; 120 mg, time 36): 28.83; Serum noribogaine concentration ([1]; 120 mg, time 48): 19.54; Serum noribogaine concentration ([1]; 120 mg, time 60): 10.75; Serum noribogaine concentration ([1]; 120 mg, time 72): 7.75; Serum noribogaine concentration ([1]; 120 mg, time 96): 4.66; Serum noribogaine concentration ([1]; 120 mg, time 120): 2.45; Serum noribogaine concentration ([1]; 120 mg, time 144): 1.20; Serum noribogaine concentration ([1]; 180 mg, time 0): 0; Serum noribogaine concentration ([1]; 180 mg, time 0.5): 10.78; Serum noribogaine concentration ([1]; 180 mg, time 1): 65.68; Serum noribogaine concentration ([1]; 180 mg, time 1.5): 134.19; Serum noribogaine concentration ([1]; 180 mg, time 2): 163.32; Serum noribogaine concentration ([1]; 180 mg, time 2.5): 179.63; Serum noribogaine concentration ([1]; 180 mg, time 3): 221.67; Serum noribogaine concentration ([1]; 180 mg, time 3.5): 236.27; Serum noribogaine concentration ([1]; 180 mg, time 4): 238.87; Serum noribogaine concentration ([1]; 180 mg, time 5): 217.26; Serum noribogaine concentration ([1]; 180 mg, time 6): 197.10; Serum noribogaine concentration ([1]; 180 mg, time 7): 207.47; Serum noribogaine concentration ([1]; 180 mg, time 8): 185.55; Serum noribogaine concentration ([1]; 180 mg, time 12): 159.53; Serum noribogaine concentration ([1]; 180 mg, time 16): 127.63; Serum noribogaine concentration ([1]; 180 mg, time 24): 97.34; Serum noribogaine concentration ([1]; 180 mg, time 36): 59.50; Serum noribogaine concentration ([1]; 180 mg, time 48): 43.75; Serum noribogaine concentration ([1]; 180 mg, time 60): 33.69; Serum noribogaine concentration ([1]; 180 mg, time 72): 23.06; Serum noribogaine concentration ([1]; 180 mg, time 96): 13.04; Serum noribogaine concentration ([1]; 180 mg, time 120): 3.37; Serum noribogaine concentration ([1]; 180 mg, time 144): 1.61; CL/F ([2]; 3 mg single oral dose, plasma, mean (SD), n = 6): 41.4 (7.0) L/h; CL/F ([2]; 10 mg single oral dose, plasma, mean (SD), n = 6): 42.3 (12.0) L/h; CL/F [2, 3]: 46.9 (16.4) L/h; Tmax [2, 3]: 1.8 (0.6) hr; CL/F ([2]; 60 mg single oral dose, plasma, mean (SD), n = 6): 34.0 (11.4) L/h; dose dependence of Cmax and AUC ([2]; 3-60 mg): increased linearly with dose; mean half-life estimates ([2]; across dose groups 3-60 mg): 28 to 50 h; time of peak concentrations after oral dosing ([2]; across dose groups 3-60 mg): 2 to 3 h; volume of distribution ([2]; across dose groups 3-60 mg): 1417 to 3086 L
